Here are results for six compounds from patent US6472227B1, “Barbiturate assay, tracers, immunogens, antibodies and kit” (Abbott Laboratories, priority 1986, dated 2002).

Common to all, as to type: binding, sheep
Assay [1] has as its system antibodies raised against an immunogen having the structure shown in FIG. 28. Briefly: Fluorescence polarization immunoassay cross-reactivity in drug-free normal human urine, tracer of FIG. 5. The note with it: for amount of the test compound found in the resulting human urine: 200 ng/mL added to drug-free urine, secobarbital standard. The protocol: (§1) The antibodies of the present invention are prepared by eliciting a response in sheep to the immunogens described supra. The immunogen is administered to animals or to in vitro cultures of immunocompetent cells by a series of innoculations, in a manner well known to those skilled in the art.
(§2) The tracer formulation presently preferred is 150 nanomolar tracer in: 0.1 molar phosphate buffer at pH 6.2; 5% sodium 5-sulfosalicylate; 0.1% sodium azide; and 0.01% bovine gamma-globulin. The antiserum formulation comprises sheep serum diluted with: 0.1 molar tris buffer at pH 7.5; 0.1% sodium azide; 0.1% bovine gamma-globulin; and 2% ethylene glycol (volume/volume). The dilution buffer comprises: 0.1 molar sodium phosphate at pH 7.5; 0.1% sodium azide; and 0.01% bovine gamma-globulin. The pretreatment solution comprises: 0.01% bovine gamma-globulin; 0.1 molar tris buffer at pH 7.5; 0.1% sodium azide; and 10 mg/mL riboflavin binding protein.
(§3) A minimum of fifty microliters of urine is required. The calibrators, controls, or unknown samples are pipetted directly into the sample well of the TDx® or ADx® sample cartridge. […] The assay procedure from this point is fully automated.
(§4) If a manual assay is being performed, then the sample is mixed with the pretreatment solution in dilution buffer and a background reading is taken. The tracer and antibody are then mixed into the test solution. After incubation, a fluorescence polarization reading is taken.
(§5) The net fluorescence polarization value of each calibrator, control or sample is determined and is printed on the output tape of an instrument such as the Abbott TDx® Analyzer. […] The concentration of each control or sample is read off the stored calibration curve and printed on the output tape.
Cross-reactivity was tested by the method of the present invention for the commonly-used barbiturates. […]
The five columns indicate the following information:
In other words, when 200 ng of secobarbital were added to drug-free normal human urine, approximately 200 ng of secobarbital were detected in the resulting urine sample. Thus, the closer the factor is to 1.0, the more accurate the assay is with respect to the particular test compound analyzed.
The percent cross-reactivity value presented in column five was obtained by the following mathematical formula: [formula]
(§6) The five columns in Tables 4(a) and 4(b) indicate the same information as is described above for Table 3(a).

Assay [2] concerns antibodies raised against an immunogen having the structure shown in FIG. 29. The assay can be described thus: Fluorescence polarization immunoassay cross-reactivity in drug-free normal human urine, tracer of FIG. 30. The note with it: for % CR / Conc. Found: tracer FIG. 30; for amount of the test compound found in the resulting human urine: 200 ng/mL added to drug-free urine, secobarbital standard. The procedure:
as §1, §2, §3, §4, §5
Cross-reactivity was tested by the method of the present invention for the commonly-used barbiturates. In each case, compounds were assayed on the Abbott Laboratories+ TDx® Clinical Analyzer or the ADx® Drugs of Abuse System after adding a known quantity (200 ng/mL) of the barbiturate test compound to drug-free normal human urine.
as §6
A general note: In fluorescence polarisation assays a small probe gives low polarisation when free and higher when bound to something large.

Assay [3] shares this test system. The assay can be described thus: Fluorescence polarization immunoassay cross-reactivity, tracer of FIG. 31. The note with it: tracer FIG. 31. The protocol:
as §1

A value given as a limit tells only on which side of the number the result lay.

Consider `CCC1(c2ccccc2)CCC(=O)NC1=O` (centres unmarked) [Glutethimide], for which the “amount of the test compound found” value is on record as “ND (None detected: Concentration less than the sensitivity of the assay (60 ng/mL))” in assay [1] (1 μg/mL added), 180 ng/mL in assay [1] (10 μg/mL added), 89 ng/mL in assay [2] (1 μg/mL added) and 480 ng/mL in assay [2] (10 μg/mL added). Further, the figures for the factor in assay [1] (10 μg/mL added), in assay [2] (1 μg/mL added) and in assay [2] (10 μg/mL added) were 0.018, 0.089 and 0.048, respectively. For the same compound, the percent cross reactivity in assay [1] (10 μg/mL added) came to 1.80%; in assay [2] (1 μg/mL added), 8.90%; in assay [2] (10 μg/mL added), 4.80%. Further, the “% CR” value in assay [2] (Conc. Added 10 (ng/mL)) and in assay [3] (Conc. Added 10 (ng/mL)) was 4.70% throughout. The “Conc. Found” value in assay [2] (Conc. Added 10 (ng/mL)) and in assay [3] (Conc. Added 10 (ng/mL)) was 470 ng/mL in each case.

`CC(C)Cc1ccc(C(C)C(=O)O)cc1` (centres unmarked) [Ibuprofen]: the “amount of the test compound found” value was “ND (None detected: Concentration less than the sensitivity of the assay (60 ng/mL))” in assay [1] (1 μg/mL added), “ND (None detected: Concentration less than the sensitivity of the assay (60 ng/mL))” in assay [1] (10 μg/mL added) and 70 ng/mL in assay [1] (100 μg/mL added). In addition, the factor in assay [1] (100 μg/mL added) came to 0.0007. In assay [1] (100 μg/mL added), the percent cross reactivity is 0.07%. The results for the “% CR” value in assay [2] (Conc. Added 1000 (ng/mL)) and in assay [3] (Conc. Added 1000 (ng/mL)) were 0.002% and 0.005%, respectively. Moreover, the entries for the “Conc. Found” value in assay [2] (Conc. Added 1000 (ng/mL)) and in assay [3] (Conc. Added 1000 (ng/mL)) were 20 ng/mL and 50 ng/mL, respectively.

Turning to `CCCC(C)C1(CC)C(=O)NC(=O)NC1=O` (centres unmarked) [Pentobarbital], the “factor which overestimates or underestimates the compound assayed for” value in assay [1] (200 ng/mL added) is 1.05; in assay [2] (200 ng/mL added) it was 0.65. The percent cross reactivity in assay [1] (200 ng/mL added) is 105%; in assay [2] (200 ng/mL added) it was 65%. Further, the “amount of the test compound found in the resulting human urine” value (from here on “amount … in the resulting human urine”) is on record as 210 ng/mL in assay [1] and 129 ng/mL in assay [2]. Further, the “% CR” value in assay [2] (Conc. Added 1200 ng/mL) worked out at 62%; in assay [3] (Conc. Added 1200 ng/mL), 64%. The “Conc. Found” value in assay [2] (Conc. Added 1200 ng/mL) is on record as 740 ng/mL; in assay [3] (Conc. Added 1200 ng/mL) it was 770 ng/mL.

For the compound `CCC1(c2ccccc2)C(=O)NC(=O)NC1=O` [Phenobarbital], the entries for the “factor which overestimates or underestimates the compound assayed for” value in assay [1] (200 ng/mL added) and in assay [2] (200 ng/mL added) were 1.05 and 0.70, respectively. In addition, the percent cross reactivity in assay [1] (200 ng/mL added) came out at 105%; in assay [2] (200 ng/mL added) it was 70%. Also, the “amount … in the resulting human urine” value in assay [1] is 210 ng/mL; in assay [2] it was 140 ng/mL. In addition, the “% CR” value turned out to be 62% in assay [2] (Conc. Added 1200 ng/mL) and 107% in assay [3] (Conc. Added 1200 ng/mL). The “Conc. Found” value stood at 740 ng/mL in assay [2] (Conc. Added 1200 ng/mL) and 1280 ng/mL in assay [3] (Conc. Added 1200 ng/mL).

Turning to `O=C1NC(=O)C(c2ccccc2)(c2ccccc2)N1` [Phenytoin], the “amount of the test compound found” value is “ND (None detected: Concentration less than the sensitivity of the assay (60 ng/mL))” in assay [1] (1 μg/mL added), 320 ng/mL in assay [1] (10 μg/mL added) and 1020 ng/mL in assay [1] (100 μg/mL added). Also, the figures for the factor in assay [1] (10 μg/mL added) and in assay [1] (100 μg/mL added) were 0.032 and 0.0102, respectively. The values for the percent cross reactivity in assay [1] (10 μg/mL added) and in assay [1] (100 μg/mL added) were 3.20% and 1.02%, respectively. Further, the “% CR” value was 0.04% in assay [2] (Conc. Added 100 (ng/mL)) and 0.09% in assay [3] (Conc. Added 100 (ng/mL)). For the same compound, the “Conc. Found” value turned out to be 40 ng/mL in assay [2] (Conc. Added 100 (ng/mL)) and 90 ng/mL in assay [3] (Conc. Added 100 (ng/mL)).

For the compound `C=CCC1(C(C)CC)C(=O)NC(=O)NC1=O` (centres unmarked) [Talbutal], the “factor which overestimates or underestimates the compound assayed for” value in assay [1] (200 ng/mL added) is 0.90; in assay [2] (200 ng/mL added) it was 2.65. The percent cross reactivity came to 90% in assay [1] (200 ng/mL added) and 265% in assay [2] (200 ng/mL added). The results for the “amount … in the resulting human urine” value in assay [1] and in assay [2] were 180 ng/mL and 531 ng/mL, respectively. Also, the “% CR” value in assay [2] (Conc. Added 1200 ng/mL) and in assay [3] (Conc. Added 1200 ng/mL) was more than 167% throughout.
